From paper PMC4823954, “From fighting depression to conquering tumors: a novel tricyclic thiazepine compound as a tubulin polymerization inhibitor” (Cell Death & Disease, 2016)

Assays:
Experiment in all cases: KINOMEscan
Format in all cases: binding
Details in all cases: read-out: % Ctrl
RIOK3 = biological target: T1, RIOK3 (Homo sapiens, UniProt O14730)
T1 construct: purchased DiscoveRx KINOMEscan
In short: (§1)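 Competition binding panel of 442 non-mutant kinases: test compound at 5 and 10 μM competed with an active-site-directed ligand for 1 h with shaking. Bound kinase was eluted with 0.5 μM ligand and quantified by qPCR; %Ctrl = (compound − positive control)/(DMSO − positive control) × 100, lower meaning tighter binding.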

HPK1 = biological target: T2, HPK1 (Homo sapiens, UniProt Q92918)
T2 construct: purchased DiscoveRx KINOMEscan
In short: as §1

[1] = biological target: T3, RSK3(Kin.Dom.2-C-terminal) (Homo sapiens, UniProt Q15349)
T3 construct: RSK3(Kin.Dom.2-C-terminal); purchased DiscoveRx KINOMEscan
T3 sequence (Q15349 389-733 limits assumed): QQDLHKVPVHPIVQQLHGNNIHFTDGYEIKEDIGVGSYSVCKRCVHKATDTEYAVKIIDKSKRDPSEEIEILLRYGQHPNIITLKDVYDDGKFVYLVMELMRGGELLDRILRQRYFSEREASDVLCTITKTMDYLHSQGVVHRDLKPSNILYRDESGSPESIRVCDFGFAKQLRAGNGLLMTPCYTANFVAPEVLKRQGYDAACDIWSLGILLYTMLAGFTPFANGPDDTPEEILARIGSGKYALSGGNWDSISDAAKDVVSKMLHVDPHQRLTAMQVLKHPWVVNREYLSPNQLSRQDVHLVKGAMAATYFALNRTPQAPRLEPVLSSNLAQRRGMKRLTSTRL
In short: as §1

ERK4 = biological target: T4, ERK4 (Homo sapiens, UniProt P31152)
T4 construct: purchased DiscoveRx KINOMEscan
In short: as §1

CDK9 = biological target: T5, CDK9 (Homo sapiens, UniProt P50750)
T5 construct: purchased DiscoveRx KINOMEscan
In short: as §1

NEK4 = biological target: T6, NEK4 (Homo sapiens, UniProt P51957)
T6 construct: purchased DiscoveRx KINOMEscan
In short: as §1

MEK3 = biological target: T7, MEK3 (Homo sapiens, UniProt P46734)
T7 construct: purchased DiscoveRx KINOMEscan
T7 sequence (P46734 whole entry): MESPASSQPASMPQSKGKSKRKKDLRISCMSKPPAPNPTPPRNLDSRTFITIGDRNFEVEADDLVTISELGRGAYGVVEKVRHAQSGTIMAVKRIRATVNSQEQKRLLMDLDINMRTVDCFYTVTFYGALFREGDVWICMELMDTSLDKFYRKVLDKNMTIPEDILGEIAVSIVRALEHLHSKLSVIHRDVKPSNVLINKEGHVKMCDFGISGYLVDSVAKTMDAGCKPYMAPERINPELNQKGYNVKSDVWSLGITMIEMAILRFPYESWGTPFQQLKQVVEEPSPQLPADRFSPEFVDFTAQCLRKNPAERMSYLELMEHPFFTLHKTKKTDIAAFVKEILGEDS
In short: as §1

LRRK2 = biological target: T8, LRRK2 (Homo sapiens, UniProt Q5S007)
T8 construct: purchased DiscoveRx KINOMEscan
In short: as §1

DCAMKL2 = biological target: T9, DCAMKL2 (Homo sapiens, UniProt Q8N568)
T9 construct: purchased DiscoveRx KINOMEscan
T9 sequence (Q8N568 whole entry): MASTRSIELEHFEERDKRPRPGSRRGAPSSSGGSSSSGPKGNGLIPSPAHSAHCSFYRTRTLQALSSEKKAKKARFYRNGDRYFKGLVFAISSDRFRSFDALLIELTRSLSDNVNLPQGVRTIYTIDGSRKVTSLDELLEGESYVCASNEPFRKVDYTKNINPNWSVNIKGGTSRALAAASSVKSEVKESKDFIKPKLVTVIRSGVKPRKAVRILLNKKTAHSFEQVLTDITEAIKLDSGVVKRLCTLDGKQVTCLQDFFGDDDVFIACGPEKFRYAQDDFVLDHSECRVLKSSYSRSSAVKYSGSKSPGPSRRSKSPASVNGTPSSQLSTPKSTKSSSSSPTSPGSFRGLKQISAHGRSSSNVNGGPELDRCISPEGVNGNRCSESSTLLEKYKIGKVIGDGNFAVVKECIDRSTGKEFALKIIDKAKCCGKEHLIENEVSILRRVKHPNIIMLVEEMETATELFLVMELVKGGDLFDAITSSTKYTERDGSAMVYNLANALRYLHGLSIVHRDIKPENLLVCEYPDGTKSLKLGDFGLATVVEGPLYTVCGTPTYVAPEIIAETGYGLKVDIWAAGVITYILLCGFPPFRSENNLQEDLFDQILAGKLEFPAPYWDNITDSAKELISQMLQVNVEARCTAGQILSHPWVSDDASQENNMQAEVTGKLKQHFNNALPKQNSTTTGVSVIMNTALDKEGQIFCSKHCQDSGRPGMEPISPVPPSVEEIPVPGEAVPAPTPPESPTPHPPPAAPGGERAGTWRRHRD
In short: as §1

NEK7 = biological target: T10, NEK7 (Homo sapiens, UniProt Q8TDX7)
T10 construct: purchased DiscoveRx KINOMEscan
T10 sequence (Q8TDX7 whole entry): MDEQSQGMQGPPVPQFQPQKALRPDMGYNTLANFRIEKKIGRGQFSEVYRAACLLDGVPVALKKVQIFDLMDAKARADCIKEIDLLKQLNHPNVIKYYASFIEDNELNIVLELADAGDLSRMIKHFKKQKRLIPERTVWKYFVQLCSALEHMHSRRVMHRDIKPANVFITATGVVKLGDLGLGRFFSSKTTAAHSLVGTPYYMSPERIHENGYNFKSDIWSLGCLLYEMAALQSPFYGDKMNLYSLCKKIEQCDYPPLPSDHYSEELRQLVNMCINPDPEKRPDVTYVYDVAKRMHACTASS
In short: as §1

FGFR1 = biological target: T11, FGFR1 (Homo sapiens, UniProt P11362)
T11 construct: purchased DiscoveRx KINOMEscan
In short: as §1

MEK5 = biological target: T12, MEK5 (Homo sapiens, UniProt Q13163)
T12 construct: purchased DiscoveRx KINOMEscan
In short: as §1

MINK = biological target: T13, MINK (Homo sapiens, UniProt Q8N4C8)
T13 construct: purchased DiscoveRx KINOMEscan
In short: as §1

PKN1 = biological target: T14, PKN1 (Homo sapiens, UniProt Q16512)
T14 construct: purchased DiscoveRx KINOMEscan
T14 sequence (Q16512 whole entry): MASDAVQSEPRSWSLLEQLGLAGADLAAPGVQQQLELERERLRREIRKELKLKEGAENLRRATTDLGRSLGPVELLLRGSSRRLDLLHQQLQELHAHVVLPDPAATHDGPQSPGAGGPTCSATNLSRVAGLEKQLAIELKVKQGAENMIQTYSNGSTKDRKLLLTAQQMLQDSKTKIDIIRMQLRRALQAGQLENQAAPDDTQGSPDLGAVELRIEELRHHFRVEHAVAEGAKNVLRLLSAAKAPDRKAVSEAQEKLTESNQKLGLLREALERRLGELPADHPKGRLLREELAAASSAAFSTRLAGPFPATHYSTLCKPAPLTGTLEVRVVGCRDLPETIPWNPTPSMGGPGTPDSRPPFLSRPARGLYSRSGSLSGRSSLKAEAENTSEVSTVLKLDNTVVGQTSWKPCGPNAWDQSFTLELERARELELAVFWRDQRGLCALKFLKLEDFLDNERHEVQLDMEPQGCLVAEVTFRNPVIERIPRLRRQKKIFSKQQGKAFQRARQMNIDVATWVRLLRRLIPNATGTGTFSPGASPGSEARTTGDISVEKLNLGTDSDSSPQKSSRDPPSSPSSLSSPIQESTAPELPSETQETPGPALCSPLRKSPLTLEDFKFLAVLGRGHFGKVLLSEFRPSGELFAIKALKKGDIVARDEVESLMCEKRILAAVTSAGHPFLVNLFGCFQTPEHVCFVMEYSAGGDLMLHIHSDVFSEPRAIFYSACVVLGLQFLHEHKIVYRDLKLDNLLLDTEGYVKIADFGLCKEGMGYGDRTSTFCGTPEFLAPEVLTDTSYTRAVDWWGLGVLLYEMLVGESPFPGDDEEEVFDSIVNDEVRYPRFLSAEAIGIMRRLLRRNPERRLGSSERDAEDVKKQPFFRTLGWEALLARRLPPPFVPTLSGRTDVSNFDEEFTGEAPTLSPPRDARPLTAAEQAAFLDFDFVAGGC
In short: as §1

RIPK5 = biological target: T15, RIPK5 (Homo sapiens, UniProt Q6XUX3)
T15 construct: purchased DiscoveRx KINOMEscan
In short: as §1

CSNK1G3 = biological target: T16, CSNK1G3 (Homo sapiens, UniProt Q9Y6M4)
T16 construct: purchased DiscoveRx KINOMEscan
In short: as §1

EPHA1 = biological target: T17, EPHA1 (Homo sapiens, UniProt P21709)
T17 construct: purchased DiscoveRx KINOMEscan
In short: as §1

DAPK2 = biological target: T18, DAPK2 (Homo sapiens, UniProt Q9UIK4)
T18 construct: purchased DiscoveRx KINOMEscan
In short: as §1

TXK = biological target: T19, TXK (Homo sapiens, UniProt P42681)
T19 construct: purchased DiscoveRx KINOMEscan
In short: as §1

CAMK1G = biological target: T20, CAMK1G (Homo sapiens, UniProt Q96NX5)
T20 construct: purchased DiscoveRx KINOMEscan
T20 sequence (Q96NX5 whole entry): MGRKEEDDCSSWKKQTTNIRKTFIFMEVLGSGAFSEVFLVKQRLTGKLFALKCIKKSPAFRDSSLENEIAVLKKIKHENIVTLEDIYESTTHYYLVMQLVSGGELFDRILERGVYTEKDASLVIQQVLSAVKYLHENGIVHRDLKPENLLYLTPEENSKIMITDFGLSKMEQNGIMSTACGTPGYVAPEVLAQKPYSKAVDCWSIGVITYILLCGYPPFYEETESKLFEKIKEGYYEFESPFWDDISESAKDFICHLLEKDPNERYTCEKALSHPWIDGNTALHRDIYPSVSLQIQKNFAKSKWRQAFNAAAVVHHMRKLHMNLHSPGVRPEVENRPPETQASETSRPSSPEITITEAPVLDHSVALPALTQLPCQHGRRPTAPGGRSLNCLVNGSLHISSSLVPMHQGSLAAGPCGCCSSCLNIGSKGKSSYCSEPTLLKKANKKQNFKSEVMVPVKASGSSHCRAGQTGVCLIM
In short: as §1

ALK = biological target: T21, ALK (Homo sapiens, UniProt Q9UM73)
T21 construct: purchased DiscoveRx KINOMEscan
In short: as §1

SNRK = biological target: T22, SNRK (Homo sapiens, UniProt Q9NRH2)
T22 construct: purchased DiscoveRx KINOMEscan
In short: as §1

EPHA2 = biological target: T23, EPHA2 (Homo sapiens, UniProt P29317)
T23 construct: purchased DiscoveRx KINOMEscan
T23 sequence (P29317 24-976): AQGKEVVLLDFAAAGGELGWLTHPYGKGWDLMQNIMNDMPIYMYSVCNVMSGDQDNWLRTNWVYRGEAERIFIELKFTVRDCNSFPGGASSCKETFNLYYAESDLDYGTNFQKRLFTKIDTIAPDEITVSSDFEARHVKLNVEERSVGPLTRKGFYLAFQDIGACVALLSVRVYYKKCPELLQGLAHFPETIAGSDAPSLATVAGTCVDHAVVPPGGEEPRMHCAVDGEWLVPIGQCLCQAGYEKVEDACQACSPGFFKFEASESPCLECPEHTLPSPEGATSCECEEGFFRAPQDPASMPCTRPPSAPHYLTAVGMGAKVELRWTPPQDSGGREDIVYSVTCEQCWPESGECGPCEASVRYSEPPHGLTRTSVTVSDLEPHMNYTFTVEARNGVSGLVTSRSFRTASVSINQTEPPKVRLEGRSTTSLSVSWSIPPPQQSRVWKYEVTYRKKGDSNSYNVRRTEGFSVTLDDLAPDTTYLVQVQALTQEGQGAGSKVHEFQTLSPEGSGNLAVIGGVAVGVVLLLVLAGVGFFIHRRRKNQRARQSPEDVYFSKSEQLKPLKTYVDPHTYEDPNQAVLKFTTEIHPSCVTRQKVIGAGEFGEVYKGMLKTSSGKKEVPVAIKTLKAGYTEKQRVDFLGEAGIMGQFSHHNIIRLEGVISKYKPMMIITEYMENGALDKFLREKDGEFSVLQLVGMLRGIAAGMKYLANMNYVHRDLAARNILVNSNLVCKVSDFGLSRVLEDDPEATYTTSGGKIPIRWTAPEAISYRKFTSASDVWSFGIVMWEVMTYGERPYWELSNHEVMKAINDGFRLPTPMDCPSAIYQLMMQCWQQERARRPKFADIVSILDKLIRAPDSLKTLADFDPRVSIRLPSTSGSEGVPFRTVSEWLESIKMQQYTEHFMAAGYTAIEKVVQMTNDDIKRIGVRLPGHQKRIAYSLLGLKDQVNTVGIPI
In short: as §1

HIPK4 = biological target: T24, HIPK4 (Homo sapiens, UniProt Q8NE63)
T24 construct: purchased DiscoveRx KINOMEscan
In short: as §1

MLK3 = biological target: T25, MLK3 (Homo sapiens, UniProt Q16584)
T25 construct: purchased DiscoveRx KINOMEscan
T25 sequence (Q16584 whole entry): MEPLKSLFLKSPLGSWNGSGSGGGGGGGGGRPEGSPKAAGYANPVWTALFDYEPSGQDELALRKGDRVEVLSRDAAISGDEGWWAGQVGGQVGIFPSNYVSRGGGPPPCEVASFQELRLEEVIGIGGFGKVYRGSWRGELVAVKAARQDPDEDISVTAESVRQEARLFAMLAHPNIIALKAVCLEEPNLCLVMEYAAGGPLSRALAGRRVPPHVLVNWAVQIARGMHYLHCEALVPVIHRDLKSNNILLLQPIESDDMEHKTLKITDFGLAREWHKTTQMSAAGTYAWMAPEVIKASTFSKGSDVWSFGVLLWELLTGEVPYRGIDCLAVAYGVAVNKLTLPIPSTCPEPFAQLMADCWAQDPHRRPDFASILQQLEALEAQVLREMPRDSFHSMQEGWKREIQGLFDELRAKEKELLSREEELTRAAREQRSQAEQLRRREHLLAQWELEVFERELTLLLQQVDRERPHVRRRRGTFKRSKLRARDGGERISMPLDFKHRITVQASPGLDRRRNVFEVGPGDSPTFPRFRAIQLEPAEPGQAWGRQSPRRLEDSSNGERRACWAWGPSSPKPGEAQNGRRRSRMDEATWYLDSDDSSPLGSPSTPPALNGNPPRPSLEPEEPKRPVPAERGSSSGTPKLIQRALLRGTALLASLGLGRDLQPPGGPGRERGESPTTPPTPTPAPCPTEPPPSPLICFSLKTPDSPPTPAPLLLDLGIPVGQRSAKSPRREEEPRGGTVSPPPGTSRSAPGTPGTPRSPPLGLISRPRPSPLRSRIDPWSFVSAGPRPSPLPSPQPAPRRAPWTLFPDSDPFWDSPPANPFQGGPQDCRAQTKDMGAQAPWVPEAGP
In short: as §1

FLT1 = biological target: T26, FLT1 (Homo sapiens, UniProt P17948)
T26 construct: purchased DiscoveRx KINOMEscan
In short: as §1

PAK6 = biological target: T27, PAK6 (Homo sapiens, UniProt Q9NQU5)
T27 construct: purchased DiscoveRx KINOMEscan
In short: as §1

MKNK1 = biological target: T28, MKNK1 (Homo sapiens, UniProt Q9BUB5)
T28 construct: purchased DiscoveRx KINOMEscan
In short: as §1

RIOK2 = biological target: T29, RIOK2 (Homo sapiens, UniProt Q9BVS4)
T29 construct: purchased DiscoveRx KINOMEscan
In short: as §1

MAP4K2 = biological target: T30, MAP4K2 (Homo sapiens, UniProt Q12851)
T30 construct: purchased DiscoveRx KINOMEscan
In short: as §1

Work on `Cc1ccc(C2=Nc3cccnc3S(=O)(=O)c3ccccc32)cc1` [TBPT, 6-(p-tolyl)benzo[f] pyrido[2,3-b][1,4] thiazepine 11,11-dioxide] yielded a remaining binding at 5 µM (RIOK3; 5 μM) of 100%, a remaining binding at 10 µM (RIOK3; 10 μM) of 100% and a remaining binding at 5 µM (HPK1; 5 μM) of 93%. The remaining binding at 10 µM (HPK1; 10 μM) was 100%, the remaining binding at 5 µM ([1]; 5 μM) was 100% and the remaining binding at 10 µM ([1]; 10 μM) was 100%. For the same compound, the remaining binding at 5 µM (ERK4; 5 μM) was 89%, the remaining binding at 10 µM (ERK4; 10 μM) was 100% and the remaining binding at 5 µM (CDK9; 5 μM) was 100%. For the same compound, the remaining binding at 10 µM (CDK9; 10 μM) was 100%, the remaining binding at 5 µM (NEK4; 5 μM) was 65% and the remaining binding at 10 µM (NEK4; 10 μM) was 99%. For the same compound, the remaining binding at 5 µM (MEK3; 5 μM) was 100%, the remaining binding at 10 µM (MEK3; 10 μM) was 100% and the remaining binding at 5 µM (LRRK2; 5 μM) was 94%. It also gave a remaining binding at 10 µM (LRRK2; 10 μM) of 100%, a remaining binding at 5 µM (DCAMKL2; 5 μM) of 100% and a remaining binding at 10 µM (DCAMKL2; 10 μM) of 100%. For the same compound, the remaining binding at 5 µM (NEK7; 5 μM) was 100%, the remaining binding at 10 µM (NEK7; 10 μM) was 89% and the remaining binding at 5 µM (FGFR1; 5 μM) was 98%. It also gave a remaining binding at 10 µM (FGFR1; 10 μM) of 100%, a remaining binding at 5 µM (MEK5; 5 μM) of 100% and a remaining binding at 10 µM (MEK5; 10 μM) of 95%. The remaining binding at 5 µM (MINK; 5 μM) was 89%, the remaining binding at 10 µM (MINK; 10 μM) was 83% and the remaining binding at 5 µM (PKN1; 5 μM) was 90%. For the same compound, the remaining binding at 10 µM (PKN1; 10 μM) was 100%, the remaining binding at 5 µM (RIPK5; 5 μM) was 58% and the remaining binding at 10 µM (RIPK5; 10 μM) was 83%. It also gave a remaining binding at 5 µM (CSNK1G3; 5 μM) of 100%, a remaining binding at 10 µM (CSNK1G3; 10 μM) of 98% and a remaining binding at 5 µM (EPHA1; 5 μM) of 100%. For the same compound, the remaining binding at 10 µM (EPHA1; 10 μM) was 94%, the remaining binding at 5 µM (DAPK2; 5 μM) was 100% and the remaining binding at 10 µM (DAPK2; 10 μM) was 99%. For the same compound, the remaining binding at 5 µM (TXK; 5 μM) was 100%, the remaining binding at 10 µM (TXK; 10 μM) was 75% and the remaining binding at 5 µM (CAMK1G; 5 μM) was 100%. The remaining binding at 10 µM (CAMK1G; 10 μM) was 100%, the remaining binding at 5 µM (ALK; 5 μM) was 100% and the remaining binding at 10 µM (ALK; 10 μM) was 71%. The remaining binding at 5 µM (SNRK; 5 μM) was 100%, the remaining binding at 10 µM (SNRK; 10 μM) was 100% and the remaining binding at 5 µM (EPHA2; 5 μM) was 87%. For the same compound, the remaining binding at 10 µM (EPHA2; 10 μM) was 95%, the remaining binding at 5 µM (HIPK4; 5 μM) was 91% and the remaining binding at 10 µM (HIPK4; 10 μM) was 100%. The remaining binding at 5 µM (MLK3; 5 μM) was 87%, the remaining binding at 10 µM (MLK3; 10 μM) was 100% and the remaining binding at 5 µM (FLT1; 5 μM) was 100%. The remaining binding at 10 µM (FLT1; 10 μM) was 98%, the remaining binding at 5 µM (PAK6; 5 μM) was 100% and the remaining binding at 10 µM (PAK6; 10 μM) was 100%. For the same compound, the remaining binding at 5 µM (MKNK1; 5 μM) was 36%, the remaining binding at 10 µM (MKNK1; 10 μM) was 100% and the remaining binding at 5 µM (RIOK2; 5 μM) was 95%. It also gave a remaining binding at 10 µM (RIOK2; 10 μM) of 100%, a remaining binding at 5 µM (MAP4K2; 5 μM) of 92% and a remaining binding at 10 µM (MAP4K2; 10 μM) of 100%.
